# Test results taken from patent US20260015358A1, “BICYCLIC DERIVATIVES, COMPOSITIONS AND USES THEREOF” (Danatlas Pharmaceuticals Co., Ltd., priority 2023, published 2026).
# Key:
# [1] = target: T1, WRN [UniPro: Q14191 (WRN_HUMAN), N500-C946] (Homo sapiens (Human), UniProt Q14191); test: WRN ATPase assay (ADP-Glo); format: biochemical; conditions: WRN enzymatic activity assay
# [2] = target: T1, WRN [UniPro: Q14191 (WRN_HUMAN), N500-C946]; test: WRN unwinding assay (FORKF DNA, fluorescence); format: biochemical; conditions: Table 14
# T1 sequence (Q14191 500-946): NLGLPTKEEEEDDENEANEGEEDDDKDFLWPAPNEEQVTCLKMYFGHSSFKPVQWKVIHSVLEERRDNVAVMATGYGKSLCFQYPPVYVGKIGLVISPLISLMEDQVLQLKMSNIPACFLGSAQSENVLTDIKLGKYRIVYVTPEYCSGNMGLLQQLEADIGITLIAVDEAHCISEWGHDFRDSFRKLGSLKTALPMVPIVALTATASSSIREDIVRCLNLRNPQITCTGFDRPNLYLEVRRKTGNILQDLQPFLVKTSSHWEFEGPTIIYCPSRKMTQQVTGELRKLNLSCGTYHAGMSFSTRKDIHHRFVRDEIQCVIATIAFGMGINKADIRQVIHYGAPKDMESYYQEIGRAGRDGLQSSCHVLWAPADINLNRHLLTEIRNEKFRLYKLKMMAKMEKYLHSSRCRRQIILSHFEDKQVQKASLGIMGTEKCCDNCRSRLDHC
IC50 [1] [nM],IC50 [2] [nM],Structure (SMILES)
< 100,< 100,"CCc1c(N2CCN(C(=O)c3cnc4scnc4c3O)CC2)c(=O)n2nc(C3=CCOCC3)nc2n1CC(=O)Nc1ccc(C(F)(F)F)cc1Cl [Example 49, N-(2-Chloro-4-(trifluoromethyl)phenyl)-2-(2-(3,6-dihydro-2H-pyran-4-yl)-5-ethyl-6-(4-(7-hydroxythiazolo[5,4-b]pyridine-6-carbonyl)piperazin-1-yl)-7-oxo-[1,2,4]triazolo[1,5-a]pyrimidin-4(7H)-yl)acetamide]"
< 100,100 to 1000,"CCc1c(N2CCN(C(=O)c3c[nH]c(=O)[nH]c3=O)CC2)c(=O)n2nc(C3=CCOCC3)nc2n1CC(=O)Nc1ccc(C(F)(F)F)cc1Cl [Example 50, N-(2-Chloro-4-(trifluoromethyl)phenyl)-2-(2-(3,6-dihydro-2H-pyran-4-yl)-6-(4-(2,4-dioxo-1,2,3,4-tetrahydropyrimidine-5-carbonyl)piperazin-1-yl)-5-ethyl-7-oxo-[1,2,4]triazolo[1,5-a]pyrimidin-4(7H)-yl)acetamide]"
< 100,100 to 1000,"CCOC(=O)c1cnc2oc(C(=O)N3CCN(c4c(CC)n(CC(=O)Nc5ccc(C(F)(F)F)cc5Cl)c5nc(C6=CCOCC6)nn5c4=O)CC3)cc2c1O [Example 53, Ethyl 2-(4-(4-(2-((2-chloro-4-(trifluoromethyl)phenyl)amino)-2-oxoethyl)-2-(3,6-dihydro-2H-pyran-4-yl)-5-ethyl-7-oxo-4,7-dihydro-[1,2,4]triazolo[1,5-a]pyrimidin-6-yl)piperazine-1-carbonyl)-4-hydroxyfuro[2,3-b]pyridine-5-carboxylate]"
100 to 1000,100 to 1000,"CCc1c(N2CCN(C(=O)c3nccn(C)c3=O)CC2)c(=O)n2nc(C3=CCOCC3)nc2n1CC(=O)Nc1ccc(C(F)(F)F)cc1Cl [Example 54, N-(2-Chloro-4-(trifluoromethyl)phenyl)-2-(2-(3,6-dihydro-2H-pyran-4-yl)-5-ethyl-6-(4-(4-methyl-3-oxo-3,4-dihydropyrazine-2-carbonyl)piperazin-1-yl)-7-oxo-[1,2,4]triazolo[1,5-a]pyrimidin-4(7H)-yl)acetamide]"
< 100,< 100,"CCc1c(N2CCN(C(=O)c3cnc4sccc4c3O)CC2)c(=O)n2nc(C3=CCOCC3)nc2n1CC(=O)Nc1ccc(C(F)(F)F)cc1Cl [Example 55, N-(2-Chloro-4-(trifluoromethyl)phenyl)-2-(2-(3,6-dihydro-2H-pyran-4-yl)-5-ethyl-6-(4-(4-hydroxythieno[2,3-b]pyridine-5-carbonyl)piperazin-1-yl)-7-oxo-[1,2,4]triazolo[1,5-a]pyrimidin-4(7H)-yl)acetamide]"
< 100,< 100,"CCc1c(N2CCN(C(=O)c3nnc(C)[nH]c3=O)CC2)c(=O)n2nc(C3=CCOCC3)nc2n1CC(=O)Nc1ccc(C(F)(F)F)cc1Cl [Example 56, N-(2-Chloro-4-(trifluoromethyl)phenyl)-2-(2-(3,6-dihydro-2H-pyran-4-yl)-5-ethyl-6-(4-(3-methyl-5-oxo-4,5-dihydro-1,2,4-triazine-6-carbonyl)piperazin-1-yl)-7-oxo-[1,2,4]triazolo[1,5-a]pyrimidin-4(7H)-yl)acetamide]"
< 100,< 100,"CCc1c(N2CCN(C(=O)c3cnc4[nH]cnc4c3O)CC2)c(=O)n2nc(C3=CCOCC3)nc2n1CC(=O)Nc1ccc(C(F)(F)F)cc1Cl [Example 57, N-(2-Chloro-4-(trifluoromethyl)phenyl)-2-(2-(3,6-dihydro-2H-pyran-4-yl)-5-ethyl-6-(4-(7-hydroxy-3H-imidazo[4,5-b]pyridine-6-carbonyl)piperazin-1-yl)-7-oxo-[1,2,4]triazolo[1,5-a]pyrimidin-4(7H)-yl)acetamide]"
< 100,< 100,"CCc1c(N2CCN(C(=O)c3nn(C)c(=O)[nH]c3=O)CC2)c(=O)n2nc(C3=CCOCC3)nc2n1CC(=O)Nc1ccc(C(F)(F)F)cc1Cl [Example 58, N-(2-Chloro-4-(trifluoromethyl)phenyl)-2-(2-(3,6-dihydro-2H-pyran-4-yl)-5-ethyl-6-(4-(2-methyl-3,5-dioxo-2,3,4,5-tetrahydro-1,2,4-triazine-6-carbonyl)piperazin-1-yl)-7-oxo-[1,2,4]triazolo[1,5-a]pyrimidin-4(7H)-yl)acetamide]"
100 to 1000,< 100,"CCc1c(N2CCN(C(=O)c3cn(C)c(=O)[nH]c3=O)CC2)c(=O)n2nc(C3=CCOCC3)nc2n1CC(=O)Nc1ccc(C(F)(F)F)cc1Cl [Example 59, N-(2-Chloro-4-(trifluoromethyl)phenyl)-2-(2-(3,6-dihydro-2H-pyran-4-yl)-5-ethyl-6-(4-(1-methyl-2,4-dioxo-1,2,3,4-tetrahydropyrimidine-5-carbonyl)piperazin-1-y1)-7-oxo-[1,2,4]triazolo[1,5-a]pyrimidin-4(7H)-yl)acetamide]"
100 to 1000,100 to 1000,"CCc1c(N2CCN(C(=O)c3cccc(C)c3O)CC2)c(=O)n2nc(C3=CCOCC3)nc2n1CC(=O)Nc1ccc(C(F)(F)F)cc1Cl [Example 60, N-(2-Chloro-4-(trifluoromethyl)phenyl)-2-(2-(3,6-dihydro-2H-pyran-4-yl)-5-ethyl-6-(4-(2-hydroxy-3-methylbenzoyl)piperazin-1-yl)-7-oxo-[1,2,4]triazolo[1,5-a]pyrimidin-4(7H)-yl)acetamide]"
< 100,< 100,"CCc1c(N2CCN(C(=O)c3c[nH][nH]c3=O)CC2)c(=O)n2nc(C3=CCOCC3)nc2n1CC(=O)Nc1ccc(C(F)(F)F)cc1Cl [Example 63, N-(2-Chloro-4-(trifluoromethyl)phenyl)-2-(2-(3,6-dihydro-2H-pyran-4-yl)-5-ethyl-7-oxo-6-(4-(3-oxo-2,3-dihydro-1H-pyrazole-4-carbonyl)piperazin-1-yl)-[1,2,4]triazolo[1,5-a]pyrimidin-4(7H)-yl)acetamide]"
100 to 1000,< 100,"CCc1c(N2CCN(C(=O)c3cn(C)[nH]c3=O)CC2)c(=O)n2nc(C3=CCOCC3)nc2n1CC(=O)Nc1ccc(C(F)(F)F)cc1Cl [Example 64, N-(2-Chloro-4-(trifluoromethyl)phenyl)-2-(2-(3,6-dihydro-2H-pyran-4-yl)-5-ethyl-6-(4-(1-methyl-3-oxo-2,3-dihydro-1H-pyrazole-4-carbonyl)piperazin-1-yl)-7-oxo-[1,2,4]triazolo[1,5-a]pyrimidin-4(7H)-yl)acetamide]"
100 to 1000,100 to 1000,"CCc1c(N2CCN(C(=O)c3ccc[nH]c3=O)CC2)c(=O)n2nc(C3=CCOCC3)nc2n1CC(=O)Nc1ccc(C(F)(F)F)cc1Cl [Example 65, N-(2-Chloro-4-(trifluoromethyl)phenyl)-2-(2-(3,6-dihydro-2H-pyran-4-yl)-5-ethyl-7-oxo-6-(4-(2-oxo-1,2-dihydropyridine-3-carbonyl)piperazin-1-yl)-[1,2,4]triazolo[1,5-a]pyrimidin-4(7H)-yl)acetamide]"
> 1000,> 1000,"CCc1c(N2CCN(C(=O)C3CCC(=O)N3)CC2)c(=O)n2nc(C3=CCOCC3)nc2n1CC(=O)Nc1ccc(C(F)(F)F)cc1Cl (centres unmarked) [Example 66, N-(2-Chloro-4-(trifluoromethyl)phenyl)-2-(2-(3,6-dihydro-2H-pyran-4-yl)-5-ethyl-7-oxo-6-(4-(5-oxopyrrolidine-2-carbonyl)piperazin-1-yl)-[1,2,4]triazolo[1,5-a]pyrimidin-4(7H)-yl)acetamide]"
< 100,< 100,"CCc1c(N2CCN(C(=O)c3nccc4[nH]ccc34)CC2)c(=O)n2nc(C3=CCOCC3)nc2n1CC(=O)Nc1ccc(Cl)cc1C(F)(F)F [Example 67, 2-(6-(4-(1H-Pyrrolo[3,2-c]pyridine-4-carbonyl)piperazin-1-yl)-2-(3,6-dihydro-2H-pyran-4-yl)-5-ethyl-7-oxo-[1,2,4]triazolo[1,5-a]pyrimidin-4(7H)-yl)-N-(4-chloro-2-(trifluoromethyl)phenyl)acetamide]"
100 to 1000,100 to 1000,"CCc1c(N2CCN(C(=O)c3ccnc4cc[nH]c34)CC2)c(=O)n2nc(C3=CCOCC3)nc2n1CC(=O)Nc1ccc(Cl)cc1C(F)(F)F [Example 68, 2-(6-(4-(1H-Pyrrolo[3,2-b]pyridine-7-carbonyl)piperazin-1-yl)-2-(3,6-dihydro-2H-pyran-4-yl)-5-ethyl-7-oxo-[1,2,4]triazolo[1,5-a]pyrimidin-4(7H)-yl)-N-(4-chloro-2-(trifluoromethyl)phenyl)acetamide]"
100 to 1000,< 100,"CCc1c(N2CCN(C(=O)c3ncnc4[nH]ccc34)CC2)c(=O)n2nc(C3=CCOCC3)nc2n1CC(=O)Nc1ccc(Cl)cc1C(F)(F)F [Example 69, 2-(6-(4-(7H-Pyrrolo[2,3-d]pyrimidine-4-carbonyl)piperazin-1-yl)-2-(3,6-dihydro-2H-pyran-4-yl)-5-ethyl-7-oxo-[1,2,4]triazolo[1,5-a]pyrimidin-4(7H)-yl)-N-(4-chloro-2-(trifluoromethyl)phenyl)acetamide]"
100 to 1000,100 to 1000,"CCc1c(N2CCN(C(=O)c3cnc(C(F)(F)F)[nH]3)CC2)c(=O)n2nc(C3=CCOCC3)nc2n1CC(=O)Nc1ccc(Cl)cc1C(F)(F)F [Example 70, N-(4-Chloro-2-(trifluoromethyl)phenyl)-2-(2-(3,6-dihydro-2H-pyran-4-yl)-5-ethyl-7-oxo-6-(4-(2-(trifluoromethyl)-1H-imidazole-5-carbonyl)piperazin-1-yl)-[1,2,4]triazolo[1,5-a]pyrimidin-4(7H)-yl)acetamide]"
< 100,< 100,"CCc1c(N2CCN(C(=O)c3cc4ccsc4[nH]c3=O)CC2)c(=O)n2nc(C3=CCOCC3)nc2n1CC(=O)Nc1ccc(C(F)(F)F)cc1Cl [Example 71, N-(2-Chloro-4-(trifluoromethyl)phenyl)-2-(2-(3,6-dihydro-2H-pyran-4-yl)-5-ethyl-7-oxo-6-(4-(6-oxo-6,7-dihydrothieno[2,3-b]pyridine-5-carbonyl)piperazin-1-yl)-[1,2,4]triazolo[1,5-a]pyrimidin-4(7H)-yl)acetamide]"
